Measured values taken from patent publication US20100173930A1, “Certain Chemical Entities, Compositions and Methods” (priority 2006, published 2010).

Each compound was assayed on SKM MYOFIBRIL (assay: SKM myofibril AC1.4 (ATPase, PK/LDH coupled enzyme system)). Details: screen at pCa=6.5.
Type: biochemical
Method: Assay components including the target protein complex, coupling enzymes and substrates, and ATP can then be added to the wells and the absorbance or fluorescence of each well of the plate can be measured with a plate reader.
In some embodiments, the method uses a 384 well plate format and a 25µL reaction volume. […] As will be appreciated by those in the art, the assay components are added in buffers and reagents. The incubation periods can be optimized to give adequate detection signals over the background. The assay can be done in real time giving the kinetics of ATP hydrolysis which increases the signal to noise ratio of the assay.
Just prior to screening, the actin, tropomyosin and troponin complex are mixed together in the desired ratio (e.g., 7:1:1) to achieve maximal calcium regulation of the actin filament. The screen is conducted at a pCa=6.5. This calcium concentration is in the physiological range during muscle contraction.
To measure the generation of ADP during the reaction, a pyruvate kinase/lactate dehydrogenase/NADH coupled enzyme system (PK/LDH) is added to the actin. The myosin is kept separately. The plates are read in real time so that kinetic curves are obtained. These compounds are in DMSO and were already spotted onto the bottoms of 384 well plates at 10 to 40 μg/ml final concentration.
Also: unit not given here.

Row | SMILES | SKM MYOFIBRIL AC1.4 (median)
1 | Cc1ccn2c(NCc3ccc(F)cc3F)c(-c3ccccc3O)nc2c1 [2-(3-{[(2,4-difluorophenyl)methyl]amino}-7-methyl-4-hydroimidazo[1,2-a]pyridin-2-yl)phenol] | 0.959
2 | OCc1ccn2c(NCc3cccc(Cl)c3)c(-c3ccccc3O)nc2c1 [2-(3-{[(3-chlorophenyl)methyl]amino}-7-(hydroxymethyl)-4-hydroimidazo[1,2-a]pyridin-2-yl)phenol] | 1.9956
3 | COc1cccc2nc(O)c(-c3nc4cc(C)ccn4c3NCc3cccc(Cl)c3)cc12 [3-(3-{[(3-chlorophenyl)methyl]amino}-7-methyl(4-hydroimidazo[1,2-a]pyridin-2-yl))-5-methoxyquinolin-2-ol] | 2.3608
4 | Oc1ccccc1-c1nc2cccc(Br)n2c1NCc1cccc(Cl)c1 [2-(5-bromo-3-{[(3-chlorophenyl)methyl]amino}-4-hydroimidazo[1,2-a]pyridin-2-yl)phenol] | 12.5914
5 | O=C(NCCO)c1ccc2nc(-c3ccccc3O)c(NCc3ccc(F)cc3)n2c1 [(3-{[(4-fluorophenyl)methyl]amino}-2-(2-hydroxyphenyl)(4-hydroimidazo[1,2-a]pyridin-6-yl))-N-(2-hydroxyethyl)carboxamide] | 2.2384
6 | Oc1ccc(-c2nc3ccccn3c2NCc2cccc(Cl)c2)cc1 [4-(3-{[(3-chlorophenyl)methyl]amino}-4-hydroimidazo[1,2-a]pyridin-2-yl)phenol] | 10.5567
7 | NCc1ccc2nc(-c3ccccc3O)c(NCc3cccc(Cl)c3)n2c1 [2-(6-(aminomethyl)-3-{[(3-chlorophenyl)methyl]amino}-4-hydroimidazo[1,2-a]pyridin-2-yl)phenol] | 0.2349
8 | Cc1ccc(-c2nc3ccccn3c2NC2CCCCC2)cc1 [cyclohexyl[2-(4-methylphenyl)(4-hydroimidazo[1,2-a]pyridin-3-yl)]amine] | 25.2334
9 | O=C(O)c1ccc2nc(-c3ccccc3O)c(NCc3cccc(Cl)c3)n2c1 [3-{[(3-chlorophenyl)methyl]amino}-2-(2-hydroxyphenyl)-4-hydroimidazo[1,2-a]pyridine-6-carboxylic acid] | 15.043
10 | Cc1ccc2cc(-c3nc4cc(C)ccn4c3NCc3ccc(F)cc3)c(O)nc2c1 [3-(3-{[(4-fluorophenyl)methyl]amino}-7-methyl(4-hydroimidazo[1,2-a]pyridin-2-yl))-7-methylquinolin-2-ol] | 38.7091
11 | CN(C)CCNC(=O)c1ccc2nc(-c3ccccc3O)c(NCc3cccc(Cl)c3)n2c1 [N-[2-(dimethylamino)ethyl](3-{[(3-chlorophenyl)methyl]amino}-2-(2-hydroxyphenyl)(4-hydroimidazo[1,2-a]pyridin-6-yl))carboxamide] | 2.2231
12 | CCc1ccn2c(NCc3cccc(Cl)c3)c(-c3ccccc3O)nc2c1 [2-(3-{[(3-chlorophenyl)methyl]amino}-7-ethyl-4-hydroimidazo[1,2-a]pyridin-2-yl)phenol] | 0.9168
13 | Oc1ccc(-c2nc3ccccn3c2NCc2ccccc2)cc1 [4-{3-[benzylamino]-4-hydroimidazo[1,2-a]pyridin-2-yl}phenol] | 27.3665
14 | Cc1ccn2c(NCc3cccc(Cl)c3)c(-c3ccc(Cl)cc3O)nc2c1 [5-chloro-2-(3-{[(3-chlorophenyl)methyl]amino}-7-methyl(4-hydroimidazo[1,2-a]pyridin-2-yl))phenol] | 20.0045
15 | Cc1cccc(CNc2c(-c3ccccc3O)nc3cc(C)ccn23)c1 [2-(7-methyl-3-{[(3-methylphenyl)methyl]amino}-4-hydroimidazo[1,2-a]pyridin-2-yl)phenol] | 0.9541
16 | Oc1ccc(-c2nc3ccccn3c2NC2CCCCC2)cc1 [4-[3-(cyclohexylamino)-4-hydroimidazo[1,2-a]pyridin-2-yl]phenol] | 8.513
17 | COc1ccc(-c2nc3cc(C)ccn3c2NCc2cccc(Cl)c2)c(O)c1 [2-(3-{[(3-chlorophenyl)methyl]amino}-7-methyl(4-hydroimidazo[1,2-a]pyridin-2-yl))-5-methoxyphenol] | 27.0817
18 | Cc1ccn2c(NCc3ccccc3F)c(-c3ccccc3O)nc2c1 [2-(3-{[(2-fluorophenyl)methyl]amino}-7-methyl-4-hydroimidazo[1,2-a]pyridin-2-yl)phenol] | 1.0036
19 | Cc1ccn2c(NCC(=O)N3CCCCC3)c(-c3ccccc3O)nc2c1 [2-{[2-(2-hydroxyphenyl)-7-methyl(4-hydroimidazo[1,2-a]pyridin-3-yl)]amino}-1-piperidylethan-1-one] | 40.2086
20 | Oc1ccc(-c2nc3ccccn3c2NCc2ccccc2Cl)cc1 [4-(3-{[(2-chlorophenyl)methyl]amino}-4-hydroimidazo[1,2-a]pyridin-2-yl)phenol] | 17.7003
21 | Oc1ccc(-c2nc3ccc(Cl)cn3c2NCc2ccc(F)cc2)cc1 [4-(6-chloro-3-{[(4-fluorophenyl)methyl]amino}-4-hydroimidazo[1,2-a]pyridin-2-yl)phenol] | 14.9602

Row | SMILES | SKM MYOFIBRIL AC1.4 (median)
22 | Cc1ccc(-c2nc3cc(C)ccn3c2NC2CCCC2)cc1 [cyclopentyl[7-methyl-2-(4-methylphenyl)(4-hydroimidazo[1,2-a]pyridin-3-yl)]amine] | 4.2349
23 | OCc1ccc2nc(-c3ccccc3O)c(NCc3cccc(Cl)c3)n2c1 [2-(3-{[(3-chlorophenyl)methyl]amino}-6-(hydroxymethyl)-4-hydroimidazo[1,2-a]pyridin-2-yl)phenol] | 1.6756
24 | Cc1ccc(-c2nc3ccccn3c2NCc2cccc(Cl)c2)cc1 [[(3-chlorophenyl)methyl][2-(4-methylphenyl)(4-hydroimidazo[1,2-a]pyridin-3-yl)]amine] | 17.6147
25 | COc1ccccc1CNc1c(-c2ccccc2O)nc2cc(C)ccn12 [2-(3-{[(2-methoxyphenyl)methyl]amino}-7-methyl-4-hydroimidazo[1,2-a]pyridin-2-yl)phenol] | 1.9683
26 | Cc1ccn2c(NCc3ccccc3Cl)c(-c3ccccc3O)nc2c1 [2-(3-{[(2-chlorophenyl)methyl]amino}-7-methyl-4-hydroimidazo[1,2-a]pyridin-2-yl)phenol] | 1.165
27 | COCCNC(=O)c1ccc2nc(-c3ccccc3O)c(NCc3ccc(F)cc3)n2c1 [(3-{[(4-fluorophenyl)methyl]amino}-2-(2-hydroxyphenyl)(4-hydroimidazo[1,2-a]pyridin-6-yl))-N-(2-methoxyethyl)carboxamide] | 4.3059
28 | Cc1ccn2c(NC3CCCC3)c(-c3ccccc3O)nc2c1 [2-[3-(cyclopentylamino)-7-methyl-4-hydroimidazo[1,2-a]pyridin-2-yl]phenol] | 11.1785
29 | Cc1cn2c(NCc3cccc(Cl)c3)c(-c3ccccc3O)nc2cn1 [2-(3-{[(3-chlorophenyl)methyl]amino}-6-methyl-4-hydroimidazo[1,2-a]pyrazin-2-yl)phenol] | 3.6886
30 | CCCCNc1c(-c2ccc(O)cc2)nc2ccccn12 [4-[3-(butylamino)-4-hydroimidazo[1,2-a]pyridin-2-yl]phenol] | 27.9936
31 | COCCNC(=O)c1ccc2nc(-c3ccccc3O)c(NCc3cccc(Cl)c3)n2c1 [(3-{[(3-chlorophenyl)methyl]amino}-2-(2-hydroxyphenyl)(4-hydroimidazo[1,2-a]pyridin-6-yl))-N-(2-methoxyethyl)carboxamide] | 2.0573
32 | Oc1ccccc1-c1nc2cc(Br)ccn2c1NCc1cccc(Cl)c1 [2-(7-bromo-3-{[(3-chlorophenyl)methyl]amino}-4-hydroimidazo[1,2-a]pyridin-2-yl)phenol] | 8.3071
33 | C[C@H](Nc1c(-c2ccc(O)cc2)nc2ccccn12)C(C)(C)C [4-{3-[((1S)-1,2,2-trimethylpropyl)amino]-4-hydroimidazo[1,2-a]pyridin-2-yl}phenol] | 11.8489
34 | CCc1ccn2c(NCc3ccc(F)cc3)c(-c3ccccc3O)nc2c1 [2-(7-ethyl-3-{[(4-fluorophenyl)methyl]amino}-4-hydroimidazo[1,2-a]pyridin-2-yl)phenol] | 0.9459
35 | O=C(NCCO)c1ccc2nc(-c3ccccc3O)c(NCc3cccc(Cl)c3)n2c1 [(3-{[(3-chlorophenyl)methyl]amino}-2-(2-hydroxyphenyl)(4-hydroimidazo[1,2-a]pyridin-6-yl))-N-(2-hydroxyethyl)carboxamide] | 1.3334
36 | Oc1ccc(-c2nc3ccc(F)cn3c2NCc2ccc(F)cc2)cc1 [4-(6-fluoro-3-{[(4-fluorophenyl)methyl]amino}-4-hydroimidazo[1,2-a]pyridin-2-yl)phenol] | 26.5123
37 | N#Cc1ccn2c(NC3CCCC3)c(-c3ccc(O)cc3)nc2c1 [3-(cyclopentylamino)-2-(4-hydroxyphenyl)-4-hydroimidazo[1,2-a]pyridine-7-carbonitrile] | 17.9621
38 | O=C(c1ccc2nc(-c3ccccc3O)c(NCc3cccc(Cl)c3)n2c1)N1CCOCC1 [3-{[(3-chlorophenyl)methyl]amino}-2-(2-hydroxyphenyl)(4-hydroimidazo[1,2-a]pyridin-6-yl) morpholin-4-yl ketone] | 24.9925
39 | Cc1ccn2c(NCc3cccc(Cl)c3)c(-c3ccccc3O)nc2c1 [2-(3-{[(3-chlorophenyl)methyl]amino}-7-methyl-4-hydroimidazo[1,2-a]pyridin-2-yl)phenol] | 0.9522
40 | Oc1ccccc1-c1nc2ccc(Cl)cn2c1NCc1ccc(F)cc1 [2-(6-chloro-3-{[(4-fluorophenyl)methyl]amino}-4-hydroimidazo[1,2-a]pyridin-2-yl)phenol] | 3.5116
41 | Oc1ccccc1-c1nc2ccccn2c1NC1CCCC1 [2-[3-(cyclopentylamino)-4-hydroimidazo[1,2-a]pyridin-2-yl]phenol] | 11.2917
